Source: patent US20230295157A1, “3-(1H-IMIDAZOL-2-YL)-2,3,8,8A-TETRAHYDROINDOLIZIN-5(1H)-ONE DERIVATIVES USEFUL AS FACTOR XIA INHIBITORS” (JANSSEN PHARMACEUTICA NV, priority 2020, published 2023)
Read-outs that look alike come from different tables or passages of the source.

Tests used:
[1] = molecular target: Factor XIa (Homo sapiens (Human), UniProt P03951); test: Factor XIa inhibition assay (FLINT) utilizing a fluorophore-quencher pair peptide substrate; format: biochemical; conditions: 30 min preincubation, kinetic reads over 30 min, read-out: FXIa Kin Inh IC50
Factor XIa, sequence (P03951 388-625): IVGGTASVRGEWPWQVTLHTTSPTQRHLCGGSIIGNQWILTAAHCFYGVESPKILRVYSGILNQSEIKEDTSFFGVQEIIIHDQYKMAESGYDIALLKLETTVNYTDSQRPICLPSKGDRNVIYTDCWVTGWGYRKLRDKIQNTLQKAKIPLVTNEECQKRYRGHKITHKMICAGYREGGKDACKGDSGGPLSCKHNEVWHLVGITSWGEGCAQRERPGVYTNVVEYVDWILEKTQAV
Factor XIa, sequence (P03951 19-387 partner): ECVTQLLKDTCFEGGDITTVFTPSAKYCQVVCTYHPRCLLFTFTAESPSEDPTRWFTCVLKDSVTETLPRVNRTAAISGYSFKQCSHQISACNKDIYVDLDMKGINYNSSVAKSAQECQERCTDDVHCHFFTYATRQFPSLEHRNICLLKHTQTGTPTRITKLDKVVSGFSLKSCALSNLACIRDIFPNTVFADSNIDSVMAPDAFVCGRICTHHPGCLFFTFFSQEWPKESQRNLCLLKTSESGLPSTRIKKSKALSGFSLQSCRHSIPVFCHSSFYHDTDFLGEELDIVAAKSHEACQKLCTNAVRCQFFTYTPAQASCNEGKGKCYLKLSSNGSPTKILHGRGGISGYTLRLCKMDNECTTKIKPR
In short: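 FXIa ([…]) preincubated 30 min with compound (11-point 3-fold dilution, top 100 nM, 2% DMSO), then 15 μM quenched FXI Arg146-based peptide added; Tris pH 7.5, CaCl2, BSA, CHAPS. Fluorescence 485/520 nm read kinetically every 5 min over 30 min at RT; IC50 by 4-parameter fit.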

[2] = molecular target: human plasma kallikrein (Homo sapiens (Human), UniProt P03952); test: Kallikrein inhibition assay (FLINT) utilizing a quenched AMC peptide substrate; format: biochemical; conditions: 30 min preincubation, read-out: Kallikrein Kin Inh IC50
human plasma kallikrein, sequence (P03952 391-638): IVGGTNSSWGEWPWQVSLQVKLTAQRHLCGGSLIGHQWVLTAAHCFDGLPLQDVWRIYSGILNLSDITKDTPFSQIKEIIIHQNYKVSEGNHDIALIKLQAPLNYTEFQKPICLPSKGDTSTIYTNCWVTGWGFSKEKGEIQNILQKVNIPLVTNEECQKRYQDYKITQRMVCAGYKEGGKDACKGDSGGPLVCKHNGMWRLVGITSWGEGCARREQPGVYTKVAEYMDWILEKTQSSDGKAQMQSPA
human plasma kallikrein, sequence (P03952 20-390 partner): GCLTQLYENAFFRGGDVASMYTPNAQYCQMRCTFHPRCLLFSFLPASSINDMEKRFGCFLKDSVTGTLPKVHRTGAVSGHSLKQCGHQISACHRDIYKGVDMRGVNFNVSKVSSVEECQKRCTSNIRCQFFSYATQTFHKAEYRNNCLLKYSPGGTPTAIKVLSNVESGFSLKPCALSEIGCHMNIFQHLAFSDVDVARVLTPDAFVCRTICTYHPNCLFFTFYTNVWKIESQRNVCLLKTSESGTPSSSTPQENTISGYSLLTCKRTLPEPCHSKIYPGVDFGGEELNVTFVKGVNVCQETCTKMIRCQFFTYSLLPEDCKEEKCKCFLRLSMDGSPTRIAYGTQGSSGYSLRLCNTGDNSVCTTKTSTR
In short: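 Enzyme (2 nM final) pre-incubated 30 min at room temperature with compound (11-point, 3-fold, top 1 μM, 2% DMSO), then 50 μM Z-Gly-Pro-Arg-AMC added in Tris pH 7.5 buffer. Kinetic fluorescence 340/440 nm every 5 min over 30 min; IC50 from 4-parameter logistic fit.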

[3] = 5Fam-KLTRAETV-K5Tamra substrate 15 μM
[4] = kinetic reads over 30 min, Z-Gly-Pro-Arg-AMC substrate 50 μM

IC50 [1, 3] | IC50 [2, 4] | IC50 ([2]; μM, kinetic reads) | IC50 ([1]; 5Fam-[…]-K5Tamra substrate 15 μM) | SMILES
0.5 nM | 0.0046 µM | – | – | Nc1nccc(-c2cnc([C@@H]3CC[C@@H]4CC(c5c(-n6cnnn6)ccc(Cl)c5F)=CC(=O)N43)[nH]2)c1F [Example 126, (3S,8aR)-3-[5-(2-amino-3-fluoro-4-pyridyl)-1H-imidazol-2-yl]-7-[3-chloro-2-fluoro-6-(tetrazol-1-yl)phenyl]-2,3,8,8a-tetrahydro-1H-indolizin-5-one]
1 nM | 0.009 µM | – | – | O=C(Nc1ccncc1-c1c[nH]c([C@@H]2CC[C@H]3CC(c4c(-n5cnnn5)ccc(Cl)c4F)=CC(=O)N32)n1)C1CC1 [Example 267, N-[3-[2-[(3S,8aS)-7-[3-Chloro-2-fluoro-6-(tetrazol-1-yl)phenyl]-5-oxo-2,3,8,8a-tetrahydro-1H-indolizin-3-yl]-1H-imidazol-4-yl]-4-pyridyl]cyclopropanecarboxamide]
1.1 nM | 0.0021 µM | – | – | COc1ccc(-c2c[nH]c([C@@H]3CC[C@H]4CC(c5c(-n6cnnn6)ccc(Cl)c5F)=CC(=O)N43)n2)c(NC(=O)C2CC2)c1 [Example 264, N-[2-[2-[(3S,8aS)-7-[3-Chloro-2-fluoro-6-(tetrazol-1-yl)phenyl]-5-oxo-2,3,8,8a-tetrahydro-1H-indolizin-3-yl]-1H-imidazol-4-yl]-5-methoxy-phenyl]cyclopropanecarboxamide]
2.7 nM | 0.0355 µM | – | – | CCOC(=O)NCc1nccc(-c2cnc([C@@H]3CC[C@@H]4CC(c5c(-n6cnnn6)ccc(Cl)c5F)=CC(=O)N43)[nH]2)c1F [Example 12, Ethyl-N-[[4-[2-[(3S,8aR)-7-[3-Chloro-2-fluoro-6-(tetrazol-1-yl)phenyl]-5-oxo-2,3,8,8a-tetrahydro-1H-indolizin-3-yl]-1H-imidazol-5-yl]-3-fluoro-2-pyridyl]methyl]carbamate]
2.7 nM | 0.021 µM | – | – | Cn1cc(-c2c[nH]c([C@@H]3CCC4CC(c5c(-n6cnnn6)ccc(Cl)c5F)=CC(=O)N43)n2)c(NC(=O)C2CC2)n1 (stereo partly drawn) [Example 259, N-[4-[2-[(3S)-7-[3-Chloro-2-fluoro-6-(tetrazol-1-yl)phenyl]-5-oxo-2,3,8,8a-tetrahydro-1H-indolizin-3-yl]-1H-imidazol-4-yl]-1-methyl-pyrazol-3-yl]cyclopropanecarboxamide]
20.5 nM | 0.0909 µM | – | – | NC(=O)c1ccc(-c2cnc([C@@H]3CC[C@@H]4CC(c5c(-n6cc(C(F)(F)F)nn6)ccc(Cl)c5F)=CC(=O)N43)[nH]2)cn1 (single isomer, unassigned) [Example 212]
0.6 nM | 0.0117 µM | – | – | Nc1ccc(-c2cnc([C@H]3CC[C@@H]4CC(c5cc(Cl)ccc5-n5cnnn5)=CC(=O)N43)[nH]2)c(F)n1 (single isomer, unassigned) [Example 119, (3*R,8aR)-3-(5-(6-amino-2-fluoropyridin-3-yl-5-d)-1H-imidazol-2-yl)-7-(5-chloro-2-(1H-tetrazol-1-yl)phenyl-3-d)-2,3,8,8a-tetrahydroindolizin-5(1H)-one]
1.6 nM | 0.0531 µM | – | – | CONC(=O)c1nccc(-c2cnc([C@@H]3CC[C@@H]4CC(c5c(-n6cnnn6)ccc(Cl)c5F)=CC(=O)N43)[nH]2)c1F [Example 103, 4-[2-[(3S,8aR)-7-[3-Chloro-2-fluoro-6-(tetrazol-1-yl)phenyl]-5-oxo-2,3,8,8a-tetrahydro-1H-indolizin-3-yl]-1H-imidazol-5-yl]-3-fluoro-N-methoxy-pyridine-2-carboxamide]
95.6 nM | 0.137 µM | – | – | O=C1C=C(c2c(-n3cnnn3)ccc(Cl)c2F)C[C@H]2CC[C@@H](c3nc(-c4ncc(CO)s4)c[nH]3)N12 [Example 39, (3S,8aR)-7-(3-Chloro-2-fluoro-6-(1H-tetrazol-1-yl)phenyl)-3-(4-(5-(hydroxymethyl)thiazol-2-yl)-1H-imidazol-2-yl)-2,3,8,8a-tetrahydroindolizin-5(1H)-one]
3.1 nM | 0.0216 µM | – | – | COCc1nccc(-c2c[nH]c([C@@H]3CCC4CC(c5c(-n6cnnn6)ccc(Cl)c5F)=CC(=O)N43)n2)c1F (stereo partly drawn) [Example 177, (3S)-7-(3-chloro-2-fluoro-6-(1H-tetrazol-1-yl)phenyl)-3-(4-(3-fluoro-2-(methoxymethyl)pyridin-4-yl)-1H-imidazol-2-yl)-2,3,8,8a-tetrahydroindolizin-5(1H)-one]
0.5 nM | 0.0444 µM | – | – | O=C1C=C(c2c(-n3cnnn3)ccc(Cl)c2F)C[C@H]2CC[C@@H](c3ncc(-c4ccnc(COP(=O)(O)O)c4F)[nH]3)N12 [Example 61, (4-(2-((3S,8aR)-7-(3-chloro-2-fluoro-6-(1H-tetrazol-1-yl)phenyl)-5-oxo-1,2,3,5,8,8a-hexahydroindolizin-3-yl)-1H-imidazol-5-yl)-3-fluoropyridin-2-yl)methyl dihydrogen phosphate]
46.5 nM | 0.0379 µM | – | – | NC(=O)c1ncc(-c2c[nH]c([C@@H]3CC[C@H]4CC(c5c(-n6cc(C(F)(F)F)nn6)ccc(Cl)c5F)=CC(=O)N43)n2)s1 (single isomer, unassigned) [Example 209]
0.4 nM | 0.0011 µM | – | – | O=C1C=C(c2c(-n3cnnn3)ccc(Cl)c2F)C[C@H]2CC[C@H](c3nc(Cl)c(-c4ccnc(C5(O)CC5)c4)[nH]3)N12 [Example 178, (3R,8aR)-7-(3-chloro-2-fluoro-6-(1H-tetrazol-1-yl)phenyl)-3-(4-chloro-5-(2-(1-hydroxycyclopropyl)pyridin-4-yl)-1H-imidazol-2-yl)-2,3,8,8a-tetrahydroindolizin-5(1H)-one]
7.4 nM | 0.0288 µM | – | – | C[C@H](C#N)c1nccc(-c2cnc([C@@H]3CCC4CC(c5c(-n6cnnn6)ccc(Cl)c5F)=CC(=O)N43)[nH]2)c1F (relative stereo) [Example 163, (2*S)-2-(4-(2-((3S)-7-(3-chloro-2-fluoro-6-(1H-tetrazol-1-yl)phenyl)-5-oxo-1,2,3,5,8,8a-hexahydroindolizin-3-yl)-1H-imidazol-5-yl)-3-fluoropyridin-2-yl)propanenitrile]
> 200 nM | – | 1.1 µM | – | CN(C)C(=O)c1ccccc1-c1c[nH]c([C@@H]2CCC3CC(c4c(-n5cnnn5)ccc(Cl)c4F)=CC(=O)N32)n1 (stereo partly drawn) [Example 288, 2-(2-((3S)-7-(3-Chloro-2-fluoro-6-(1H-tetrazol-1-yl)phenyl)-5-oxo-1,2,3,5,8,8a-hexahydroindolizin-3-yl)-1H-imidazol-4-yl)-N,N-dimethylbenzamide]
1.3 nM | 0.0082 µM | – | – | C[C@H]1C[C@@H](c2ncc(-c3ccc(N)nc3F)[nH]2)N2C(=O)C=C(c3c(-n4cnnn4)ccc(Cl)c3F)C[C@@H]12 (single isomer, unassigned) [Example 346, (1*S,3S,8a*S)-3-(5-(6-Amino-2-fluoropyridin-3-yl)-1H-imidazol-2-yl)-7-(3-chloro-2-fluoro-6-(1H-tetrazol-1-yl)phenyl)-1-methyl-2,3,8,8a-tetrahydroindolizin-5(1H)-one]
1 nM | 0.0006 µM | – | – | NC(=O)c1cc(-c2cnc([C@@H]3CC[C@@H]4CC(c5c(-n6cnnn6)ccc(Cl)c5F)=CC(=O)N43)[nH]2)cs1 [Example 234, 4 (2-((3S,8aR)-7-(3-Chloro-2-fluoro-6-(1H-tetrazol-1-yl)phenyl)-5-oxo-1,2,3,5,8,8a-hexahydroindolizin-3-yl)-1H-imidazol-5-yl)thiophene-2-carboxamide]
4.8 nM | 0.0358 µM | – | – | O=C1C=C(c2c(-n3cnnn3)ccc(Cl)c2F)C[C@H]2CC[C@H](c3nc(F)c(-c4ccnc(C5(O)CC5)c4F)[nH]3)N12 (single isomer, unassigned) [Example 109]
– | 0.0051 µM | – | 1.9 nM | N#CC1CN(c2nccc(-c3cnc([C@@H]4CC[C@@H]5CC(c6c(-n7cnnn7)ccc(Cl)c6F)=CC(=O)N54)[nH]3)c2F)C1 (single isomer, unassigned) [Example 100, 1-(4-(2-((3S*,8aR)-7-(3-chloro-2-fluoro-6-(1H-tetrazol-1-yl)phenyl)-5-oxo-1,2,3,5,8,8a-hexahydroindolizin-3-yl)-1H-imidazol-5-yl)-3-fluoropyridin-2-yl)azetidine-3-carbonitrile]
12.3 nM | 0.121 µM | – | – | O=C(c1nccc(-c2cnc([C@@H]3CC[C@@H]4CC(c5c(-n6cnnn6)ccc(Cl)c5F)=CC(=O)N43)[nH]2)c1F)N1CC(F)(F)C1 [Example 94, (3S,8aR)-7-(3-Chloro-2-fluoro-6-(1H-tetrazol-1-yl)phenyl)-3-(5-(2-(3,3-difluoroazetidine-1-carbonyl)-3-fluoropyridin-4-yl)-1H-imidazol-2-yl)-2,3,8,8a-tetrahydroindolizin-5(1H)-one]
0.3 nM | 0.001 µM | – | – | O=C1Nc2ccc(-c3cnc([C@@H]4CCC5CC(c6c(-n7cnnn7)ccc(Cl)c6F)=CC(=O)N54)[nH]3)cc2CO1 (stereo partly drawn) [Example 297, 6-(2-((3S)-7-(3-Chloro-2-fluoro-6-(1H-tetrazol-1-yl)phenyl)-5-oxo-1,2,3,5,8,8a-hexahydroindolizin-3-yl)-1H-imidazol-5-yl)-1H-benzo[d][1,3]oxazin-2(4H)-one]

SMILES | IC50 [1, 3] | IC50 [2, 4] | IC50 ([2]; μM, kinetic reads) | IC50 ([1]; 5Fam-[…]-K5Tamra substrate 15 μM)
C[C@H](CO)Oc1nccc(-c2cnc([C@@H]3CC[C@@H]4CC(c5c(-n6cnnn6)ccc(Cl)c5F)=CC(=O)N43)[nH]2)c1F (single isomer, unassigned) [Example 168, (3S,8a*R)-7-(3-chloro-2-fluoro-6-(1H-tetrazol-1-yl)phenyl)-3-(5-(3-fluoro-2-(((R)-1-hydroxypropan-2-yl)oxy)pyridin-4-yl)-1H-imidazol-2-yl)-2,3,8,8a-tetrahydroindolizin-5(1H)-one] | 0.8 nM | 0.0049 µM | – | –
